Results reported in patent US20250304535A1, “KAT6 Inhibitors” (BeiGene Switzerland GmbH, priority 2024, published 2025).

Legend:
[1] = biological target: Recombinant human KAT6A protein (497-780) (Homo sapiens (Human), UniProt Q92794); assay: KAT6A biochemical TR-FRET assay; details: histone H4 peptide 2000 nM, AcCoA 300 nM, enzyme 5 nM
[2] = biological target: Recombinant human KAT6B protein (657-1069) (Homo sapiens (Human), UniProt Q8WYB5); assay: KAT6B biochemical TR-FRET assay; details: histone H4 peptide 1000 nM, AcCoA 100 nM, enzyme 5 nM
Sequence of Recombinant human KAT6B protein (657-1069) (Q8WYB5 657-1069): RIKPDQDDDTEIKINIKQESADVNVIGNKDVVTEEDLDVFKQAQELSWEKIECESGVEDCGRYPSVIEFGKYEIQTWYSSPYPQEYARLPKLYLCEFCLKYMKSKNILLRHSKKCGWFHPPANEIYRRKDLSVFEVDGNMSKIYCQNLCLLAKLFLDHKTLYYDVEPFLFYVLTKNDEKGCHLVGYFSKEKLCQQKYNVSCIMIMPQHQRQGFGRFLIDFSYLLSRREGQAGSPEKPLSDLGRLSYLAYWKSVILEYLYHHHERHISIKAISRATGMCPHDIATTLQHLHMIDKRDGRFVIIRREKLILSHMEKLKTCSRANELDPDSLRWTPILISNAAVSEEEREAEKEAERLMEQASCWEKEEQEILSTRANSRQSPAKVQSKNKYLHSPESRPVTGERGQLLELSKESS

[3] = test system: histone H3K23 acetylation in U-2 OS cells; assay: Histone H3 lysine 23 acetylation assay in U-2 OS cells (high content analysis); format: cell-based; details: 24 hrs exposure, H3K23ac level
In short: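 U-2 OS cells seeded overnight, then exposed 24 h to a 9-point compound dilution series; 0.1% DMSO medium as blank. Fixed, permeabilised, stained with anti-H3K23ac plus Alexa Fluor 647 secondary and DAPI; nuclear H3K23ac intensity read by high-content imaging. Inhibition = mean per-well cell intensity relative to on-plate blanks.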

Sequence of Recombinant human KAT6A protein (497-780) (Q92794 497-780): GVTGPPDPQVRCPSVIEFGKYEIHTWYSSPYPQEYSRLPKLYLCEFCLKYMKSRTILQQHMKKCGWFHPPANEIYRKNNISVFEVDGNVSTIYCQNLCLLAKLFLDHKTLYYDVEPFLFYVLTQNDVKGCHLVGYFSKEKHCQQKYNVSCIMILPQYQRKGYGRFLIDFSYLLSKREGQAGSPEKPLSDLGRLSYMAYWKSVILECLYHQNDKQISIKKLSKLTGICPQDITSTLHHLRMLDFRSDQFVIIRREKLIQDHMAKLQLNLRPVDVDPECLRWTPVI

Structure (SMILES)	IC50 [1]	IC50 [2]	IC50 ([3]; Homo sapiens, U2OS)	IC50 [3]
COc1ccc(C2(C)CCC2)cc1S(=O)(=O)NC(=O)c1ccc(Cn2cccn2)c(OC)n1 [Example C76, 5-((1H-pyrazol-1-yl)methyl)-6-methoxy-N-((2-methoxy-5-(1-methylcyclobutyl)phenyl)sulfonyl) picolinamide]	≤ 5 nM	≤ 5 nM	≤ 10 nM	
COc1ccc(C23COC(C2)C3)cc1S(=O)(=O)NC(=O)c1ccc(Cn2cccn2)c(OC)n1 [Example C77, 5-((1H-pyrazol-1-yl)methyl)-N-((5-(2-oxabicyclo[2.1.1]hexan-4-yl)-2-methoxyphenyl)sulfonyl)-6-methoxypicolinamide]	5 to 50 nM	≤ 5 nM	≤ 10 nM	
COc1ccc(C23CC(C2)C3)nc1S(=O)(=O)NC(=O)c1ccc(Cn2cccn2)c(OC)n1 [Example C79, 5-((1H-pyrazol-1-yl)methyl)-N-((6-(bicyclo[1.1.1]pentan-1-yl)-3-methoxypyridin-2-yl)sulfonyl)-6-methoxypicolinamide]	≤ 5 nM	≤ 5 nM	≤ 10 nM	

Other lines, results leading:

IC50 [1]	IC50 [2]	IC50 ([3]; Homo sapiens, U2OS)	IC50 [3]	Structure (SMILES)
≤ 5 nM	≤ 5 nM	≤ 10 nM		COc1ccc(C2(C)CC3(COC3)C2)cc1S(=O)(=O)NC(=O)c1ccc(Cn2cccn2)c(OC)n1 [Example C74, 5-((1H-pyrazol-1-yl)methyl)-6-methoxy-N-((2-methoxy-5-(6-methyl-2-oxaspiro[3.3]heptan-6-yl)phenyl)sulfonyl) picolinamide]
≤ 5 nM	≤ 5 nM	≤ 10 nM		COc1ccc(C2(C)COC2)cc1S(=O)(=O)NC(=O)c1ccc(Cn2cccn2)c(OC)n1 [Example C75, 5-((1H-pyrazol-1-yl)methyl)-6-methoxy-N-((2-methoxy-5-(3-methyloxetan-3-yl)phenyl)sulfonyl) picolinamide]
≤ 5 nM	≤ 5 nM		≤ 10 nM	COc1ccc2c(c1S(=O)(=O)NC(=O)c1ccc(Cn3cccn3)c(OC)n1)OC1CC2C1 [Example C78, 5-((1H-pyrazol-1-yl)methyl)-6-methoxy-N-((7-methoxy-3,4-dihydro-2H-2,4-methanochroman-8-yl)sulfonyl)picolinamide]
